The numbers were not newly measured in patent EP1060743A1, “Oral cisapride dosage forms with an extended duration” (DEVELOPMENT CENTER FOR BIOTECHNOLOGY, priority 1999, dated 2000), which cites them from elsewhere.

Like-named read-outs stand apart in the source and are kept apart here.

As for `COc1cc(N)c(Cl)cc1C(=O)NC1CCN(CCCOc2ccc(F)cc2)CC1OC` (racemic) [cisapride, (±)-cis-4-amino-5-chloro-N-1-[3-(4-fluorophenoxy)propyl]-3-methoxy-4-piperidine-2-methoxybenzamide monohydrate], the solubility of cisapride entry is, setting by setting: (pH condition near neutral (pH of intestinal fluid)) “almost insoluble”; (under acidic conditions) “better solubility”.
